Measured values taken from patent US8399491B2, “Derivatives of indole-2-carboxamides and of azaindole-2-carboxamides substituted with a silanyl group, preparation thereof and therapeutic use thereof” (Sanofi, priority 2008, dated 2013).

How the values were obtained:
TRPV1 receptor = biological target: T1, TRPV1 receptor (Rattus norvegicus, UniProt O35433); assay: Inhibition of the current induced by capsaicin on rat DRGs (whole-cell patch-clamp); format: cell-based; settings: capsaicin response (1 microM), newborn rat DRG primary culture
T1 construct: The neurones of the DRG naturally express the TRPV1 receptor; endogenous in cells; host or cells: primary culture of newborn rat dorsal root ganglion (DRG) neurones
Experimental: Test for Inhibition of the Current Induced by Capsaicin on Rat DRGs
Primary Culture of Rat Dorsal Route Ganglion (DRG) Cells:
The neurones of the DRG naturally express the TRPV1 receptor.
Newborn rat DRG primary cultures are prepared from 1-day-old rat pups. Briefly, after dissection, the ganglia are trypsinized and the cells are mechanically dissociated by controlled trituration. The cells are resuspended in an Eagle's basal culture medium containing 10% of foetal calf serum, 25 mM KCl, 2 mM glutamine, 100 μg/ml gentamicin and 50 ng/ml of NGF, and then deposited onto laminin-coated glass coverslips (0.2×10^6 cells per coverslip) which are then placed in Corning 12-well dishes. […]
The measuring chambers (volume 800 μl) containing the cell preparation are placed on the platform of an inverted microscope (Olympus IMT2) equipped with Hoffman optics (Modulation Contrast, New York) and observed at the magnification of ×400. […] The overall currents (membrane potential fixed at −60 mV) are recorded with an Axopatch 1D amplifier (Axon Instruments, Foster city, Calif.), connected to a PC controlled by Pclamp8 software (Axon Instruments). The current traces are recorded on paper and simultaneously digitized (sampling frequency 15 to 25 Hz) and acquired on the hard drive of the PC. […] The results are expressed as % inhibition of the control capsaicin response.

T1 sequence (O35433 whole entry): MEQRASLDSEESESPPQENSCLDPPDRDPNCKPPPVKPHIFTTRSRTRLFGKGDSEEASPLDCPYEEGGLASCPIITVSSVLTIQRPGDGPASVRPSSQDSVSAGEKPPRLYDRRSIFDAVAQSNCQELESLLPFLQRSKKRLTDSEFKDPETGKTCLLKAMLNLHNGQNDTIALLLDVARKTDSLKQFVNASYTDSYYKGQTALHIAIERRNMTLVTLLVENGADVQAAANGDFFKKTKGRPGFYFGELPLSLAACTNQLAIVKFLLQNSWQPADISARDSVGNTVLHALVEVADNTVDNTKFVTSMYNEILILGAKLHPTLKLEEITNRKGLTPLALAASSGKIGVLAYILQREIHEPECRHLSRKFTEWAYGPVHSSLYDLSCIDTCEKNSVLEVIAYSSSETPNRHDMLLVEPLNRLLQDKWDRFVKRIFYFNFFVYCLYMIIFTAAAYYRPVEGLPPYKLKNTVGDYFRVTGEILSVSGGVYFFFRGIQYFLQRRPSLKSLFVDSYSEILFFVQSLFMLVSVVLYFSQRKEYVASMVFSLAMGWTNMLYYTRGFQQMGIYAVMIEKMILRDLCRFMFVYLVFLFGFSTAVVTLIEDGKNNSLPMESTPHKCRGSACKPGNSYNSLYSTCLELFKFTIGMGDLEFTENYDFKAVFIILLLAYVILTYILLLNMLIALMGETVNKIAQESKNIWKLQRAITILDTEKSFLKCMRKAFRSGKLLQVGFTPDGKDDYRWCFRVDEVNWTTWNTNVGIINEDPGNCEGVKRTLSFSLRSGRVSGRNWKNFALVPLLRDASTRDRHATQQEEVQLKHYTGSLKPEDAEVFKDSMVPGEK

Row | melting point | Structure (SMILES) | inhibition at 0.001 µM (TRPV1 receptor; compound at 1 nM) | inhibition at 0.01 µM (TRPV1 receptor; compound at 10 nM)
1 | 171 to 173 °C | CC[Si](C)(CC)c1ccc2c(c1)cc(C(=O)Nc1ccc(N3CCC3)nc1)n2Cc1cccc(F)c1 | – | –
2 | 179 to 180 °C | CC(C)[Si](C)(C)c1ccc2c(c1)cc(C(=O)Nc1ccc(N3CCC3)nc1)n2Cc1cccc(F)c1 | – | –
3 | 202 to 203 °C | C[Si](C)(c1ccc2c(c1)cc(C(=O)Nc1ccc(N3CCC3)nc1)n2Cc1cccc(F)c1)C1CCCCC1 | – | –
4 | 110 to 112 °C | CC(C)(C)[Si](C)(C)c1ccc2c(c1)cc(C(=O)Nc1ccc(N3CCC3)nc1)n2Cc1cccc(F)c1 | – | –
5 | 192 to 194 °C | C[Si](C)(c1ccc2c(c1)cc(C(=O)Nc1ccc(N3CCCC3)nc1)n2Cc1cccc(F)c1)C1CCCCC1 | – | –
6 | 160 to 162 °C | C[Si](C)(C)c1cccc2cc(C(=O)Nc3ccc(N4CCC4)nc3)n(Cc3cccc(F)c3)c12 | – | –
7 | 207 to 208 °C | C[Si](C)(C)c1ccc2c(c1)cc(C(=O)Nc1ccc(N3CC(O)C3)nc1)n2Cc1cccc(F)c1 | – | –
8 | 215 to 217 °C | C[Si](C)(C)c1cccc2cc(C(=O)Nc3ccc(N4CC(O)C4)nc3)n(Cc3cccc(F)c3)c12 | – | –
9 | 188 to 189 °C | CC[Si](C)(C)c1ccc2c(c1)cc(C(=O)Nc1ccc(N3CCC3)nc1)n2Cc1cccc(F)c1 | – | –
10 | – | C[Si](C)(C)c1ccc2cc(C(=O)Nc3ccc(N4CC(O)C4)nc3)n(Cc3cccc(F)c3)c2c1 [Compound 2, N-[6-(3-Hydroxyazetidin-1-yl)pyridin-3-yl]-6-trimethylsilyl-1-[(3-fluorophenyl)methyl]-1H-indole-2-carboxamide] | 84% | –
11 | 98 to 100 °C | O=C(Nc1ccc(N2CCC2)nc1)c1cc2cc([SiH2]C(c3ccccc3)c3ccccc3)ccc2n1Cc1cccc(F)c1 | – | –
12 | 166 to 168 °C | CC[Si](CC)(CC)c1ccc2c(c1)cc(C(=O)Nc1ccc(N3CCC3)nc1)n2Cc1cccc(F)c1 | – | –
13 | 200 to 202 °C | C[Si](C)(c1ccccc1)c1ccc2c(c1)cc(C(=O)Nc1ccc(N3CCC3)nc1)n2Cc1cccc(F)c1 | – | –

Row | Structure (SMILES) | melting point | inhibition at 0.001 µM (TRPV1 receptor; compound at 1 nM) | inhibition at 0.01 µM (TRPV1 receptor; compound at 10 nM)
14 | C[Si](C)(C)c1ccc2c(c1)cc(C(=O)Nc1ccc(N3CCC3)nc1)n2Cc1cccc(F)c1 [Compound 3, N-[6-(Azetidin-1-yl)pyridin-3-yl]-5-trimethylsilyl-1-[(3-fluorophenyl)methyl]-1H-indole-2-carboxamide] | 212 to 213 °C | – | 95%
